Peptide text beside a SMILES is read from it.
Molecular target: T1, HDAC6 (Homo sapiens, UniProt Q9UBN7)
T1 construct: purchased Reaction Biology Corporation (assay run by the CRO)
T1 sequence (Q9UBN7 1-1215): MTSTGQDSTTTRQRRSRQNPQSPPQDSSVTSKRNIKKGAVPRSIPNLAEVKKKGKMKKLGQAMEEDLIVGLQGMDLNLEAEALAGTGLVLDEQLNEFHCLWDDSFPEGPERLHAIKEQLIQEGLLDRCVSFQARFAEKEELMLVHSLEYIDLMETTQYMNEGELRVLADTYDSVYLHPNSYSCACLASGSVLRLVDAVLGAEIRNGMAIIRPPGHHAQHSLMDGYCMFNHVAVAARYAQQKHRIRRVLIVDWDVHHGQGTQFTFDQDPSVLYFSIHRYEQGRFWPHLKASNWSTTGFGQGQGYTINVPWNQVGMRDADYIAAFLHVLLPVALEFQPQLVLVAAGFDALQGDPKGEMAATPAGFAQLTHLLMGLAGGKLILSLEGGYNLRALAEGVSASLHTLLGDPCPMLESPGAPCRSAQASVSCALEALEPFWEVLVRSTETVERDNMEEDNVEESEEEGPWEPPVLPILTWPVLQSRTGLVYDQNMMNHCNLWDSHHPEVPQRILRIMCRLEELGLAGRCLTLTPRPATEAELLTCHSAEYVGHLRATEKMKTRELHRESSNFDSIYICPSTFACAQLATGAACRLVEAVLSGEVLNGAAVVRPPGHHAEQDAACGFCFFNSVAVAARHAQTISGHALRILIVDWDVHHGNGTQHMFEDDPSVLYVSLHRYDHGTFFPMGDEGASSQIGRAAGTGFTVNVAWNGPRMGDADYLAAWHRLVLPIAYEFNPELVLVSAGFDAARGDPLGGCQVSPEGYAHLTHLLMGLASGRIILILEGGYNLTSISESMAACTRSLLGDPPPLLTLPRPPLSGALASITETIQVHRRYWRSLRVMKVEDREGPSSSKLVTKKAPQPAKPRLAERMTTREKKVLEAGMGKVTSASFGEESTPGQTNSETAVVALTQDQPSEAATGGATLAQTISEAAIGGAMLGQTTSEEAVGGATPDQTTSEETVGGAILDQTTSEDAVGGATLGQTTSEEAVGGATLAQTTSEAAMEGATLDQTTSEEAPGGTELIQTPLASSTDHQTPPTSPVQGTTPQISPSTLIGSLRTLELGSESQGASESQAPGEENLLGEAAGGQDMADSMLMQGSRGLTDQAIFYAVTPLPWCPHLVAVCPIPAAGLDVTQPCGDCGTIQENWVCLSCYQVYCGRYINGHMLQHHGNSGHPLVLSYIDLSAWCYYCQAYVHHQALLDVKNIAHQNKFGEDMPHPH
Assay: HDAC6 inhibition, full IC50 measurement (Reaction Biology; fluorogenic p53 peptide RHKK(Ac)AMC)
Assay type: biochemical
Method in brief: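 Reaction: enzyme plus acoustically dispensed peptide inhibitor, 50 μM RHKK(Ac)AMC substrate, pH 8.0 Tris buffer with BSA and 1% DMSO, 1 h, 30 °C. Duplicates averaged.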

Structure (SMILES) | HDAC6 activity raw data (signal) (Conc. 1.00E-05 M, t1) | HDAC6 activity raw data (signal) (Conc. 1.00E-05 M, t2) | HDAC6 activity raw data (signal) (Conc. 1.11E-06 M, t1) | HDAC6 activity raw data (signal) (Conc. 1.11E-06 M, t2) | HDAC6 activity raw data (signal) (Conc. 1.23E-07 M, t1) | HDAC6 activity raw data (signal) (Conc. 1.23E-07 M, t2) | HDAC6 activity raw data (signal) (Conc. 1.37E-08 M, t1) | HDAC6 activity raw data (signal) (Conc. 1.37E-08 M, t2) | HDAC6 activity raw data (signal) (Conc. 1.52E-09 M, t1) | HDAC6 activity raw data (signal) (Conc. 1.52E-09 M, t2) | HDAC6 activity raw data (signal) (Conc. 3.33E-06 M, t1) | HDAC6 activity raw data (signal) (Conc. 3.33E-06 M, t2) | HDAC6 activity raw data (signal) (Conc. 3.70E-07 M, t1) | HDAC6 activity raw data (signal) (Conc. 3.70E-07 M, t2) | HDAC6 activity raw data (signal) (Conc. 4.12E-08 M, t1) | HDAC6 activity raw data (signal) (Conc. 4.12E-08 M, t2) | HDAC6 activity raw data (signal) (Conc. 4.57E-09 M, t1) | HDAC6 activity raw data (signal) (Conc. 4.57E-09 M, t2) | HDAC6 activity raw data (signal) (Conc. 5.08E-10 M, t1) | HDAC6 activity raw data (signal) (Conc. 5.08E-10 M, t2) | also measured
NCCCC[C@@H]1NC(=O)[C@@H]2CCCN2C(=O)[C@H](CC(N)=O)NC(=O)[C@H](CCCCCS)NC(=O)CNC(=O)[C@H](Cc2c[nH]c3ccccc23)NC(=O)[C@@H](CCCCN)NC(=O)[C@H](CCC(N)=O)NC1=O [des1.1.0, SHA-Asn-Pro-Lys-Gln-dLys-Trp-Gly] (HELM PEPTIDE1{G.[O=C([C@H](CCCCCS)N[*:1])[*:2]].N.P.K.Q.[dK].W}$PEPTIDE1,PEPTIDE1,1:R1-8:R2$$$V2.0) | 8262 | -132 | 22357 | 16681 | 128420 | 107875 | 427941 | 374868 | 599157 | 570644 | 12160 | 5788 | 52219 | 39167 | 251632 | 228170 | 511649 | 482006 | 622162 | 563120 | IC50 (unit printed only in the axis title, read-out: HDAC6 IC50 (printed in dose-response picture)): 0.025 µM
NCCCC[C@H]1NC(=O)[C@H](CCC(N)=O)NC(=O)[C@H](CCC(=O)O)NC(=O)[C@@H]2CCCN2C(=O)[C@H](CC(N)=O)NC(=O)[C@H](CCCCCS)NC(=O)CNC(=O)[C@H](Cc2c[nH]c3ccccc23)NC1=O [des1.1.1, SHA-Asn-Pro-Glu-Gln-dLys-Trp-Gly] (HELM PEPTIDE1{E.Q.[dK].W.G.[O=C([C@H](CCCCCS)N[*:1])[*:2]].N.P}$PEPTIDE1,PEPTIDE1,1:R1-8:R2$$$V2.0) | 2105 |  | 66521 | 22362 | 195275 | 111620 | 384422 | 355429 | 513045 | 553965 | 30608 |  | 121302 | 45275 | 327835 | 217932 | 470518 | 472349 | 541421 | 570888 | 
C[C@H](O)[C@H]1NC(=O)[C@H](Cc2c[nH]c3ccccc23)NC(=O)[C@H](CCCCCS)NC(=O)[C@H](CCCCN)NC(=O)[C@@H](CC(=O)O)NC(=O)[C@@H](CCCCN)NC(=O)[C@@H](CO)NC(=O)[C@H](CC(N)=O)NC(=O)[C@H](CC(=O)O)NC1=O [des2.1.0, SHA-Trp-dThr-Asp-Asn-dSer-dLys-dAsp-Lys] (HELM PEPTIDE1{D.N.[dS].[dK].[dD].K.[O=C([C@H](CCCCCS)N[*:1])[*:2]].W.[dT]}$PEPTIDE1,PEPTIDE1,1:R1-9:R2$$$V2.0) | 11243 | 1739 | 28172 | 21097 | 158713 | 131097 | 435775 | 375237 | 580209 | 526073 | 12962 | 9723 | 70613 | 63583 | 283586 | 230477 | 537641 | 486475 | 609077 | 536924 | 
CSCC[C@H]1NC(=O)[C@@H](CO)NC(=O)[C@H](CC(N)=O)NC(=O)[C@H](CC(=O)O)NC(=O)[C@@H]([C@H](C)O)NC(=O)[C@H](Cc2c[nH]c3ccccc23)NC(=O)[C@H](CCCCCS)NC(=O)[C@H](CCCCN)NC(=O)[C@@H](CC(=O)O)NC1=O [des2.1.1, SHA-Trp-dThr-Asp-Asn-dSer-dMet-dAsp-Lys] (HELM PEPTIDE1{D.N.[dS].[dM].[dD].K.[O=C([C@H](CCCCCS)N[*:1])[*:2]].W.[dT]}$PEPTIDE1,PEPTIDE1,1:R1-9:R2$$$V2.0) | -77 | -1621 | 12750 | 10889 | 59972 | 56137 | 194975 | 185826 | 455139 | 435218 | 6654 | 2213 | 27729 | 16335 | 104749 | 101798 | 322592 | 306483 | 505663 | 482059 | 
CC(C)C[C@H]1NC(=O)[C@H](Cc2c[nH]c3ccccc23)NC(=O)[C@H](CCCCCS)NC(=O)[C@@H](Cc2ccc(O)cc2)NC(=O)[C@@H](C(C)C)NC(=O)[C@H](Cc2c[nH]cn2)NC(=O)CNC(=O)CNC(=O)[C@@H](CO)NC1=O [des2.2.0, SHA-Trp-dLeu-dSer-Gly-Gly-His-dVal-dTyr] (HELM PEPTIDE1{G.G.H.[dV].[dY].[O=C([C@H](CCCCCS)N[*:1])[*:2]].W.[dL].[dS]}$PEPTIDE1,PEPTIDE1,1:R1-9:R2$$$V2.0) | 16305 | 24452 | 83235 | 80880 | 144589 | 161069 | 141422 | 164330 | 132716 | 164682 | 43855 | 31435 | 128192 | 121991 | 140481 | 177888 | 138901 | 160834 | 128639 | 162548 | 
